Literature values as cited in patent US11045444B2, “Composition and method for promoting eyelash and eyebrow growth exclusively containing naturally sourced ingredients” (Plume Cosmetics Inc., priority 2016, dated 2021).

solubility in water: approximately 0.001%
Compound: C=C[C@@]1(C)CC(=O)[C@]2(O)[C@@]3(C)[C@@H](O)CCC(C)(C)[C@@H]3[C@H](O)[C@H](OC(C)=O)[C@@]2(C)O1 [forskolin]
